Data: PMC5920042, “KH176 Safeguards Mitochondrial Diseased Cells from Redox Stress-Induced Cell Death by Interacting with the Thioredoxin System/Peroxiredoxin Enzyme Machinery” (Scientific Reports, 2018)
Where two headings read alike, the source gives them in different places.

How the values were obtained:
P4 cell line [1] = experiment: Cellular ROS assay (DCFH-DA); type: cell-based, human; settings: Homo sapiens; P4 cells, 24 h compound treatment
Protocol: The cells were then treated for 72 h (or shorter as indicated) with culture medium containing semi-logarithmic dilutions of the test compound. Alternatively, 3 × 10^3 cells/well were seeded when cells were treated for 24 h only. At the end of the incubation period, cells were loaded with 40 µM DCFH-DA (#D6883, Sigma-Aldrich). in M199 without phenol red for 30 min. The excess of the dye was washed with ice-cold M199 without phenol red and the cells were lysed with 100 µl/well of ice-cold 0.2% Triton X-100 in M199 without phenol red after 10 min incubation in ice. Cellular debris was spun down by centrifugation at 2600 g, 5 min, +4 °C and 90 µl/well of cell lysate were transferred to a black 96-wells plate and DCF fluorescence was measured on a scanning microplate reader (BMG FLUOstar Omega; Ex. 480 nm, Em. 520 nm).

[2] = tested on: primary human skin fibroblasts; experiment: Mitochondrial superoxide detection by mitoSOX oxidation; type: cell-based; settings: 30 min preincubation, no external stimulus
Protocol: The cells were seeded at a density of 3 × 10^3 cells/well into 96-wells black plates. After 24 h, the cells were incubated with different amounts of KH176(m) in M199 without phenol red. This medium was used in all subsequent washes and incubations. After 30 min. incubation the cells were washed and subsequently incubated 1 µM mitoSOX (#M36008, ThermoFisher). […] After 10 min incubation the cells were washed twice and incubated for 30 min. to allow the accumulation of oxidized mitoSOX in the mitochondria. […] Wells with cells but without mitoSOX were used for background correction. Experiments were performed at least three times with 3 wells per experiment.

[3] = tested on: primary human skin fibroblasts; experiment: CumOOH induced lipid peroxidation (bodipy 581/591 C11); type: cell-based; settings: Homo sapiens, Skin fibroblast; 30 µM cumOOH, bodipy 581/591 C11
Protocol: The cells were seeded at a density of 3 × 10^3 cells/well into 96-wells black plates. After 24 h, the cells were coincubated with 500 nM bodipy 581/591 C11 (#D3861, Thermo Fisher) and different amounts of KH compound in M199 without phenol red. This medium was used in all subsequent washes and incubations. After 30 min. incubation the cells were washed twice and subsequently incubated with 30 μM cumene hydroperoxide (cumOOH). For background subtractions cells with the dye but without cumOOH were used. After 30 minutes incubation and two washes oxidized bodipy 581/591 C11 was quantified on an automated bioimager (BD Pathway 855), by using a 20x objective and Ex. 488/10 nm, Em. FURA/FITC. Total cellular fluorescence per well was normalized on the number of cellular pixels/well and normalized on the incubation with probe and cumOOH but without compound (vehicle set as 100%). Experiments were performed at least three times with 3 wells per experiment.

P4 cell line [4] = experiment: GSH measurements (GSH-Glo) under BSO; type: cell-based, human; settings: increasing BSO 24 h, 3 µM compound
Protocol: Cells were seeded at a density of 4 × 10^3 cells/well into 96-wells white plates (#655098, Greiner Bio-one). After 24 h the cells were treated with semi-logarithmic dilutions of BSO up to a concentration of 100 µM alone or in co-incubation with a fixed amount of the test compound. 24 h after the treatment, GSH levels were measured with the GSH-Glo™ Glutathione Assay (# V6911, Promega) according to the manufacturer instructions. Luminescence was measured on a scanning microplate reader (BMG FLUOstar Omega).

[5] = Single dose pharmacokinetics and bioavailability study; type: in vivo, male C57BL/6 mice; settings: male, mouse
Protocol: (§1) Pharmacokinetics and toxicokinetics measurements were performed by the commercial Contract Research Organizations Sai Life Sciences and WuXi AppTec, respectively, according to their standard protocols and in accordance with relevant guidelines and regulations. C57 BL/6 mice, Sprague Dawley rats, and Beagle dogs were studied.

[6] = as above; type: in vivo, male Sprague Dawley rats; settings: male, Sprague Dawley, rat, plasma
Protocol: as §1

[7] = 28-day repeat oral dose toxicity study, toxicokinetics; type: in vivo, Beagle dogs; settings: Beagle, dog, plasma, po; for AUC(0-t): read-out: AUC0–24 h; for Cmax: read-out: Cmax
Protocol: as §1

[8] = C57BL/6, iv, KH176 2 mg/kg i.v., plasma
[9] = C57BL/6, po, KH176 10 mg/kg p.o., plasma
[10] = female, 10 mg/kg, KH176 10 mg/kg/dose BID oral, F, Day 1, plasma
[11] = female, 10 mg/kg, KH176 10 mg/kg/dose BID oral, F, Day 28, plasma
[12] = female, 25 mg/kg, KH176 25 mg/kg/dose BID oral, F, Day 1, plasma
[13] = female, 25 mg/kg, KH176 25 mg/kg/dose BID oral, F, Day 28, plasma
[14] = female, 62.5 mg/kg, KH176 62.5 mg/kg/dose BID oral, F, Day 1, plasma
[15] = female, 62.5 mg/kg, KH176 62.5 mg/kg/dose BID oral, F, Day 28, plasma
[16] = male, 10 mg/kg, KH176 10 mg/kg/dose BID oral, M, Day 1, plasma
[17] = male, 10 mg/kg, KH176 10 mg/kg/dose BID oral, M, Day 28, plasma
[18] = male, 25 mg/kg, KH176 25 mg/kg/dose BID oral, M, Day 1, plasma
[19] = male, 25 mg/kg, KH176 25 mg/kg/dose BID oral, M, Day 28, plasma
[20] = male, 62.5 mg/kg, KH176 62.5 mg/kg/dose BID oral, M, Day 1, plasma
[21] = male, 62.5 mg/kg, KH176 62.5 mg/kg/dose BID oral, M, Day 28, plasma

Q: What does the source list for `Cc1c(C)c2c(c(C)c1O)CC[C@@](C)(C(=O)N[C@@H]1CCCNC1)O2.Cl` [KH176, (S)-6-hydroxy-2,5,7,8-tetramethyl-N-((R)-piperidin-3-yl)chroman-2-carboxamide hydrochloride]?
A: IC50 (P4 cell line [1]): 22.5 µM; Potency on mitochondrial superoxide levels (mitoSOX) [2]: much less potent; IC50 [3]: 64 µM; GSH level under BSO (P4 cell line [4]): remained unaffected; Kp ([5]; C57BL/6, brain, iv, KH176 2 mg/kg i.v., read-out: Brain to Plasma ratio, range (1–8 hours)): 1 to 25; Kp ([5]; C57BL/6, brain, po, KH176 10 mg/kg p.o., read-out: Brain to Plasma ratio, range (1–8 hours)): 0.4 to 0.8; Kp ([5]; C57BL/6, heart, iv, KH176 2 mg/kg i.v., read-out: Heart to Plasma ratio, range (1–8 hours)): 4.3 to 28.3; Kp ([5]; C57BL/6, heart, po, KH176 10 mg/kg p.o., read-out: Heart to Plasma ratio, range (1–8 hours)): 2.4 to 5.7; AUC(0-inf) [5, 8]: 191 ng·h/mL; AUC(0-t) [5, 8]: 181 ng·h/mL; clearance [5, 8]: 175 mL/min/kg; half-life [5, 8]: 1.4 h; C0 ([5]; C57BL/6, iv, KH176 2 mg/kg i.v., plasma, back extrapolated): 543 ng/mL; Kp ([5]; C57BL/6, liver, iv, KH176 2 mg/kg i.v., read-out: Liver to Plasma ratio, range (1–8 hours)): 10.5 to 29.3; Kp ([5]; C57BL/6, liver, po, KH176 10 mg/kg p.o., read-out: Liver to Plasma ratio, range (1–8 hours)): 5.7 to 12.1; Vd ([5]; C57BL/6, plasma, iv, KH176 2 mg/kg i.v., read-out: Vss): 9.5 L/kg; bioavailability ([5]; C57BL/6, plasma, oral, 10 mg/kg p.o. vs 2 mg/kg i.v., from AUClast, read-out: F (oral bioavailability)): 68%; AUC(0-inf) [5, 9]: 624 ng·h/mL; AUC(0-t) [5, 9]: 618 ng·h/mL; Cmax [5, 9]: 414 ng/mL; Tmax ([5]; C57BL/6, po, KH176 10 mg/kg p.o., plasma, read-out: Tmax): 0.25 h; Kp ([5]; C57BL/6, skeletal muscle, iv, KH176 2 mg/kg i.v., read-out: Skeletal muscle to Plasma ratio, range (1–8 hours)): 8.7 to 20.1; Kp ([5]; C57BL/6, skeletal muscle, po, KH176 10 mg/kg p.o., read-out: Skeletal muscle to Plasma ratio, range (1–8 hours)): 0.8 to 5.2; AUC(0-inf) ([6]; iv, KH176 2 mg/kg i.v.): 518 ng·h/mL; AUC(0-t) ([6]; iv, KH176 2 mg/kg i.v.): 510 ng·h/mL; clearance ([6]; iv, KH176 2 mg/kg i.v.): 64.6 mL/min/kg; half-life ([6]; iv, KH176 2 mg/kg i.v.): 2.6 h; C0 ([6]; iv, KH176 2 mg/kg i.v., back extrapolated): 344 ng/mL; Vd ([6]; iv, KH176 2 mg/kg i.v., read-out: Vss): 7 L/kg; bioavailability ([6]; oral, 10 mg/kg p.o. vs 2 mg/kg i.v., from AUClast, read-out: F (oral bioavailability)): 74%; AUC(0-inf) ([6]; po, KH176 10 mg/kg p.o.): 1930 ng·h/mL; AUC(0-t) ([6]; po, KH176 10 mg/kg p.o.): 1870 ng·h/mL; Cmax ([6]; po, KH176 10 mg/kg p.o.): 594 ng/mL; Tmax ([6]; po, KH176 10 mg/kg p.o., read-out: Tmax): 0.67 h; half-life [7, 10]: 1.4 h; AUC(0-t) [7, 10]: 8840 ng·h/mL; Cmax [7, 10]: 1150 ng/mL; half-life [7, 11]: 2 h; AUC(0-t) [7, 11]: 14600 ng·h/mL; Cmax [7, 11]: 1540 ng/mL; half-life [7, 12]: 1.8 h; AUC(0-t) [7, 12]: 41900 ng·h/mL; Cmax [7, 12]: 4150 ng/mL; half-life [7, 13]: 2.5 h; AUC(0-t) [7, 13]: 40000 ng·h/mL; Cmax [7, 13]: 5190 ng/mL; half-life [7, 14]: 1.7 h; AUC(0-t) [7, 14]: 63100 ng·h/mL; Cmax [7, 14]: 8150 ng/mL; half-life [7, 15]: 2.3 h; AUC(0-t) [7, 15]: 85500 ng·h/mL; Cmax [7, 15]: 10200 ng/mL; half-life [7, 16]: 1.4 h; AUC(0-t) [7, 16]: 16400 ng·h/mL; Cmax [7, 16]: 2030 ng/mL; half-life [7, 17]: 1.8 h; AUC(0-t) [7, 17]: 19000 ng·h/mL; Cmax [7, 17]: 2330 ng/mL; half-life [7, 18]: 1.8 h; AUC(0-t) [7, 18]: 42600 ng·h/mL; Cmax [7, 18]: 4290 ng/mL; half-life [7, 19]: 2 h; AUC(0-t) [7, 19]: 39900 ng·h/mL; Cmax [7, 19]: 4540 ng/mL; half-life [7, 20]: 1.8 h; AUC(0-t) [7, 20]: 91500 ng·h/mL; Cmax [7, 20]: 10100 ng/mL; half-life [7, 21]: 2.4 h; AUC(0-t) [7, 21]: 102000 ng·h/mL; Cmax [7, 21]: 12600 ng/mL
